# Measured values as given in publication PMC10644720 (Frontiers in Pharmacology, 2023).
# Assays:
# human washed platelets = test: Platelet ROS release assay (DCFH-DA); type: cell-based; conditions: luteolin 25 μM, BAY61-3606 63 nM
# Method: The assay was performed as previously reported with minor modifications ([Arthur et al., 2012]; [Ye et al., 2020]). Briefly, WPs (500 × 10^9/L) were labeled with 5 μM Fluo-3AM (Cat No. IF0150; Solarbio) or 10 μM DCFH-DA (Cat No. D6883; Sigma, St. Louis, MO, United States) at 37°C for 30 min protected from light. […] In addition, 1 mM CaCl2 and collagen or convulxin were added to start the reaction. […] A ROS probe via a fluorescent enzyme marker was added. O2 ^− and H2O2 were measured using 2 μM Amplex Red (Cat No. ST010; Beyotime Institute of Biotechnology, Shanghai, China) or 2 μM Dihydroethidium (DHE, Cat No. S0063; Beyotime Institute of Biotechnology, Shanghai, China). O2 ^− and H2O2 were analyzed using a Fluoroskan Ascent fluorometer (Thermo Fisher, Waltham, Massachusetts, United States).
# NOXs = test: NADPH oxidase (NOX) activity assay in platelet lysate; type: cell-based, human; conditions: convulxin (5 ng/mL)- and collagen (10 μg/mL)-induced; VAS2870 10 μM
# Method: MDA, SOD, GPx, and NADPH oxidase activity were measured as previously described ([Krotz et al., 2002]; [Paul et al., 2019]; [Pan et al., 2021]). After incubation and activation, the reaction was stopped by adding 10 mM EGTA. The platelets were pelleted by centrifugation at 20,000 × g for 10 min at 4°C and resuspended in Tyrode’s buffer with 0.1% phosphatase and protease inhibitors (Cat No. 04906837001, Roche Applied Science, Penzberg, Germany; Cat No. P-8340, Sigma, St. Louis, MO, United States). The platelets were disrupted by passing them 10 times through a 29-gauge needle, followed by centrifugation at 2000 × g for 10 min at 4°C to separate the supernatant and precipitate. The detection of MDA, SOD, and GPx in the supernatant was performed according to the kit’s instructions for SOD (Cat No. BC0170, Solarbio Life Science, Beijing, China), MDA (Cat No. S0131S, Beyotime Institute of Biotechnology, Shanghai, China) and GPx (Cat No. S0056, Beyotime Institute of Biotechnology, Shanghai, China). In order to determine NADPH oxidase (NOX) activity, platelet lysate (12.5 μg) was incubated with 10 µM lucigenin and 0.5 mM NADPH at 37°C in the dark. The absorbance values were detected at 450 nm using a spectrophotometer Multiskan FC (ThermoFisher Scientific Inc., Waltham, MA, United States). Protein content was determined by the Bradford method.
# [1] = system: mesenteric artery thrombosis; test: Ferric chloride-induced mesenteric thrombosis in mice; type: in vivo, C57BL/6 mice; conditions: luteolin 35 μM/kg or aspirin 0.5 mM/kg i.p., 30 min before FeCl3
# Method: A method reported in the literature was used to observe mesenteric artery thrombosis in mice ([Bonnard and […], 2015]). […] The mice were anesthetized by an intraperitoneal injection of pentobarbital (45 mg/kg). They were given an intraperitoneal injection of DMSO, luteolin, or aspirin. They were also given an orbital vein injection of 5 μg/kg rhodamine (Cat No. 83697-250 MG; Sigma-Aldrich, St. Louis, MO, United States) ([Bonnard and […], 2015]), respectively. The mesenteric vessels were exposed by opening the abdominal cavity, and small mesenteric arteries with a diameter of approximately 150-250 μm were selected under the microscope. […] During thrombosis, images were taken every 1 min for the first 10 min and every 5 min after 10 min using an MSHOT MD50 camera (Micro Shot Technology Ltd., Guangzhou, China) and an Olympus ix73 microscope (Olympus Corp., Shinjuku, Japan). […] The size of the thrombus formation was calculated using ImageJ software.
# Tail bleeding in mice = type: in vivo, C57BL/6 mice; conditions: luteolin 35 μM/kg or aspirin i.p., 30 min after injection; vs DMSO
# Method: The tail break hemorrhage experiment in mice was performed as previously reported, with slight modifications ([Liu et al., 2012]). […] Before the experiment, the mouse tails were immersed in saline for 3 min at 37°C. Then, 30 min after injection, the tails were quickly cut off using a surgical knife blade and placed in saline at 37°C. The cutting site was 5 mm from the end of the tail tip. The bleeding time of the broken tails was observed and recorded.
smiles,measurement,setting,value
"COc1ccc(-c2cc3nccn3c(Nc3ncccc3C(N)=O)n2)cc1OC [BAY61-3606, reference compound]",effect on platelet ROS release,human washed platelets; collagen (10 μg/mL)-induced,decreasing levels
same,effect on platelet ROS release,human washed platelets; convulxin (5 ng/mL)-induced,decreased
"c1ccc(Cn2nnc3c(Sc4nc5ccccc5o4)ncnc32)cc1 [VAS2870, reference compound]",NOXs activity,NOXs,significantly decreased
"CC(=O)Oc1ccccc1C(=O)O [aspirin, reference compound]",time of clot obstruction of blood vessels,[1],significantly prolong
same,time of initial thrombus formation,[1],Neither the 0.5 mM/kg aspirin group or 35 μM/kg luteolin group prolonged
same,tail bleeding time,Tail bleeding in mice,significantly prolonged
